Source: ChEMBL document CHEMBL1147291, “Bioactive compounds from the root of Myrsine africana” (J Nat Prod, 1989)
≈ marks a conversion by molar mass, not a printed value.

Assays:
[1] = test system: Artemia; test: Toxicity in brine shrimp; assay type: organism-based; settings: in vivo
[2] = test system: A549; test: Cytotoxicity against human A549 cells; assay type: functional; settings: read-out: ED50 (the source's name)
[3] = test system: HT-29; test: Cytotoxicity against human HT-29 cells; assay type: functional; settings: read-out: ED50 (the source's name)
[4] = Cytotoxicity against human KBMRI cells; assay type: functional; settings: read-out: ED50 (the source's name)
[5] = test system: P388; test: In vivo cytotoxicity against mouse P388 cells relative to control; assay type: functional
[6] = test system: Agrobacterium tumefaciens; test: Antitumor activity against Agrobacterium tumefaciens-induced crown gall tumors in potato tubers by potato disk test; assay type: functional

Row | Structure (SMILES) | LC50 [1] | EC50 [2] | EC50 [3] | EC50 [4] | T/C [5] | inhibition (INH) [6]
1 | COc1cc(O)c2c(c1)COC2=O | > 1000 ppm | > 100 µg/mL | 28 µg/mL (≈ 155 µM) | > 100 µg/mL |  | 
2 | CC(=O)c1c(C)cc2cccc(O)c2c1O [NEPODIN] | 105 ppm | 31 µg/mL (≈ 143 µM) | 36.7 µg/mL (≈ 170 µM) | 36.7 µg/mL (≈ 170 µM) |  | 
3 | Cc1cc(O)c2c(c1)C(=O)c1cc(O)cc(O)c1C2=O [EMODIN] | 35 ppm | 4.2 µg/mL (≈ 15.5 µM) | > 10 µg/mL | 6 µg/mL (≈ 22.2 µM) | 127% | 40%
4 | Cc1cc2c(c(O)c1O)C(=O)c1c(O)cccc1C2=O |  | 3.1 µg/mL (≈ 11.5 µM) | 2.8 µg/mL (≈ 10.4 µM) | 5.7 µg/mL (≈ 21.1 µM) |  | 
